From PubChem BioAssay AID652047 (Broad Institute, 2013)
Calls of active or inactive are those of the source.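 Rule for the calls: active = fitted curve reaches activity change of -35% signal drop at a concentration below twice the top valid tested dose; inactive = the rest, including activity in the opposite direction.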

test system: not listed separately; test: antimalarial activity against intraerythrocytic 3D7 parasites – 3D7 strain, red blood cells, SYBR Green, cherry-picked, dose response (AID 652047);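 for activity change, negative = inhibition: 0% = untreated neutral control wells and -100% = mefloquine positive control wells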; conditions: P. falciparum 3D7 in RBCs, SYBR Green DNA fluorescence; at 50 µM (top of the series)

SMILES | activity change, negative = inhibition
FC(F)(F)c1cccc(N2CCc3cn[nH]c32)c1 | -2.82% (inactive)
Cc1cc(Nc2ccccc2)nn1C(=O)c1ccccc1 | -5.49% (inactive)
Clc1ccc(-c2n[nH]c3c2CCC3)cc1Cl | 19.2% (inactive)
CCn1c(CNc2ccc(Cl)cc2)nnc1SCc1ccc(Cl)cc1 | -49.2% (inactive)
CNc1cc(CSC)nc(SCc2ccc(Cl)cc2Cl)n1 | 14.7% (inactive)
Cc1cccc(C)c1N1C(=O)C2ON(c3ccccc3)C(c3ccncc3)C2C1=O (centres undefined) | -3.22% (inactive)
c1ccc(Cn2cc(-c3cccnc3)cn2)cc1 | -24.2% (inactive)
COc1ccccc1C1CCN(C(=O)c2ccc(Cl)cc2)CC1 | -15.2% (inactive)
O=C1Nc2c(Br)cccc2C1=O | -4.37% (inactive)
CCCn1c2ccccc2c2cc(C(=O)O)ccc21 | 17.1% (inactive)
CCCCn1c(=O)c(C(=O)NCc2ccncc2)c(O)c2ccccc21 | 2.98% (inactive)
CCCCC(CC)c1nnc(NC(=O)c2cccs2)s1 (centres undefined) | -12.7% (inactive)
COc1ccc(N(C(=O)c2ccncc2)S(=O)(=O)c2ccc(F)cc2)cc1 | 38.9% (inactive)
O=C(O)c1c(NC(=O)N2CCCC2)sc2c1CCCC2 | -4.69% (inactive)
O=c1c(CO)cc(CO)cc(CO)c1O | -103% (inactive)
O=C1N(c2ccc(Cl)cc2)C(c2cccnc2)N2CCCN12 (centres undefined) | -3.96% (inactive)

test system: P. falciparum 3D7 in RBCs, SYBR Green DNA fluorescence; test: as above; conditions: not given

SMILES | AC35 [µM]
CC(C)C(=O)NC(c1ccco1)c1ccc2cccnc2c1O (centres undefined) | 2.02
CC(C)N1CCN(c2ccc(OC[C@H]3CO[C@](Cn4cncn4)(c4ccc(Cl)cc4Cl)O3)cc2)CC1 | 5.3
CC1CCc2c(C(=O)Nc3ccccn3)csc2C1 (centres undefined) | 28.7
Cc1cc(/C=C2\SC(=S)N(C)C2=O)c(C)n1-c1ccc(O)cc1 | 10.8
O=C1c2ccccc2-n2c1nc1ccccc1c2=O | 0.181
CCOC(=O)N1C(=O)C2(CCCCC2)N(c2ccccc2Cl)C1=S | 12.8
O=C(NCc1ccncc1)c1ccccc1Nc1ccc(SC(F)F)cc1 | 21.1
Cc1c(Cc2ccccc2)c(NCCN(C)C)n2c(nc3ccccc32)c1C#N | 7.32
CCn1c2ccc(C)cc2c2nc3cc(C(=O)O)ccc3nc21 | 42.6
COc1ccc(N=N/C(=C\O)C(=O)c2cccs2)cc1 | 7.16
O=[N+]([O-])c1cc(C(F)(F)F)ccc1NCCc1c[nH]c2ccc(O)cc12 | 28.3
CCC(=O)NC(c1ccco1)c1cc(Cl)c2cccnc2c1O (centres undefined) | 0.484
C=CCOC(Cn1ccnc1)c1ccc(Cl)cc1Cl (centres undefined) | 6.08
O/N=C(\c1ccc(Cl)cc1Cl)c1ncc(C(F)(F)F)cc1Cl | 16.9
COc1cc(/C=N/O)cc(Br)c1OCc1cccc(Cl)c1 | 29.6
Cc1oc2c(c1C(=O)c1ccccc1)C(=O)C(=O)c1ccccc1-2 | 3.23
CCc1cc(SC#N)cc(C)c1NC(=O)CCl | 7.77
CCCCCCCCCCOC(=O)Cn1c(COc2ccccc2OC)[n+](C)c2ccccc21 | 0.401
Cc1cc(C(=O)COC(=O)Cc2n[nH]c(=O)c3ccccc23)c(C)n1-c1cccc(C(F)(F)F)c1 | 6.57
O=C(c1ccc(-c2ccccc2)cc1)C1CCCN(C(=O)c2cncs2)C1 (centres undefined) | 9.45
Cc1cccc(Nc2nc(-c3ccc(O)cc3O)cs2)n1 | 20.3
O=C(Nc1cc(Oc2ccc(Cl)cc2)cc([N+](=O)[O-])c1)c1ccco1 | 6.1
CCN(CC)c1ccc(/C=N/NC(=O)c2c(Cl)cnn2C)c(O)c1 | 3.27
COC(=O)C1=C(C)NC(C)=C(C(=O)OCC(C)C)C1c1ccccc1[N+](=O)[O-] (centres undefined) | 4.78
C=CCc1ccc(O)c(-c2ccc(O)c(CC=C)c2)c1 | 15.8

SMILES | AC35 [µM]
COc1ccc(O)c(C(=O)CC(=O)c2ccccc2C)c1 | 8.89
CC(C)(C)C(=O)C(Oc1ccc(Cl)cc1)n1cncn1 (centres undefined) | 36.6
CC(C)C(=O)NC(c1cccc([N+](=O)[O-])c1)c1ccc2cccnc2c1O (centres undefined) | 1.01
Cc1nc2ccc(C(C(F)(F)F)(C(F)(F)F)C(F)(F)F)cc2[nH]1 | 17.8
Cc1cccc(N2CCN(C(=O)C3COc4ccccc4O3)CC2)c1C (centres undefined) | 34.3
O=C(Nc1ccc(Cl)cc1C(=O)Nc1ccc(Br)cn1)c1ccco1 | 15.1
Cc1cc(-c2ccccc2)n(-c2cc(N/N=C/c3ccccc3O)ncn2)n1 | 3.99
O=C1c2cccc(Cl)c2C(=O)c2c1cccc2N1CCCC1 | 22.7
C=CCn1c(-c2cc(-c3ccc(C)cc3)nc3ccccc23)n[nH]c1=S | 15.5
Cc1ccc(C)c(/C=C/C(=O)c2ccccc(=O)c2O)c1 | 7.91
COc1ccc(Sc2nc(-c3ccccn3)ncc2OC)cc1 | 1.26
CCCCCOc1ccc(CSc2n[nH]c(C)n2)cc1 | 18.6
Clc1ccc(C(Cn2ccnc2)OCc2c(Cl)cccc2Cl)c(Cl)c1 (centres undefined) | 2.76
O=C(NOC(=O)c1ccccc1)c1ccccc1 | 20.9
Cc1ccc(O)c(-c2cc(-c3ccccc3C)[nH]n2)c1 | 10.8
COc1cccc(/C=N/Nc2ncnc(Cl)c2N)c1O | 0.896
COc1cnc(-c2ccccn2)nc1Sc1ccc(C)cc1 | 1.73
CC(C)(C)n1nc(Cc2cccc3ccccc23)c2c(N)ncnc21 | 25.7
O=[N+]([O-])c1cccc(C=NNc2ccc3ccccc3n2)c1O | 4.23
CCC(C)c1ccc(NC(=S)NCCn2cc(Br)cn2)cc1 (centres undefined) | 13.9
CC(=O)Nc1cccc(NC(=O)CSc2ccc(-c3ccccn3)nn2)c1 | 14
CCCC(C)Sc1nc2c([nH]1)c(=S)n(C)c(=O)n2C (centres undefined) | 4.74
OCCN(CCO)c1cc2c3ccccc3ccc2c2ccccc12 | 1.69
Cc1ccc(-c2c3c(nc4sc(C(N)=O)c(N)c24)CCCC3)o1 | 42.6
CCC(C)n1ncn(-c2ccc(N3CCN(c4ccc(OCC5COC(Cn6cncn6)(c6ccc(Cl)cc6Cl)O5)cc4)CC3)cc2)c1=O (centres undefined) | 4.24

SMILES | AC35 [µM]
CCc1ccc(OCc2n[nH]c(=S)n2Cc2ccccc2)cc1 | 32
CN(c1ccccc1)c1nc(N2CCCC2)nc(-n2ccnc2)n1 | 9.8
COc1cc2cnc(-c3ccccc3)c(C(=O)c3ccc(F)cc3)c2cc1OC | 34.4
Nc1cc2c3ccccc3ccc2c2ccccc12 | 1.01
Cc1ccc(-n2nnnc2SCC(=O)N2CCc3ccccc3C2)c(C)c1 | 30.7
O=[N+]([O-])c1ccc2c(OCc3nnc(-c4ccccc4Br)o3)ncnc2c1 | 25.5
O=c1c2ccccc2c(-c2ccc(O)cc2)nn1-c1cccc(C(F)(F)F)c1 | 5.55
CCCCCCCn1c(=O)c(C(=O)OC)c(N)c2ccccc21 | 13.6
O=C(CC1CC2CCC1C2)Nc1nc(-c2ccccn2)cs1 (centres undefined) | 2.94
CC12CC3(C)CC(C)(C1)CC(NC(=O)N1CCCC1)(C2)C3 | 22.2
O=S(=O)(Nc1ccccc1)c1ccc(Oc2ncc(C(F)(F)F)cc2Cl)cc1 | 28.7
CCCCOC(=O)/C=C/c1ccc(OC(=O)OC)c(OC(=O)OC)c1 | 14.7
O=C(CCCSc1ccccc1)Nc1nc(-c2ccccn2)cs1 | 6.69
Oc1c(C(Nc2cccc(C(F)(F)F)c2)c2ccncc2)ccc2cccnc12 (centres undefined) | 0.879
CCN1C(=O)C(CC(=O)Nc2ccccc2Cl)N(NC(=O)c2cccc(F)c2)C1=S (centres undefined) | 21.2
COC(=O)c1cccc2c1-c1ccccc1/C2=N/O | 34.7
CCCCC(=O)NC(=S)NNC(=O)CCc1ccccc1 | 20.8
CN(C)c1ccc(C=c2c3cc(O)ccc3n3c2cc(-c2ccccc2)[n+]3C)cc1 | 0.127
CC(NC(=S)NC1CCC(C(C)(C)C)CC1)c1ccccc1 (centres undefined) | 10.2
O=C(Nc1nc(-c2ccccn2)cs1)c1ccc(Br)s1 | 0.663
COc1ccc(-c2cc(C(=O)N3CCN(c4ccccc4F)CC3)c3ccccc3n2)c(OC)c1 | 9.76
CCC(C)Sc1cccc(-c2nc3ccccn3c2NCc2ccccc2)c1 (centres undefined) | 16.8
COc1ccc2oc(=O)c(-c3csc(Nc4cccc(O)c4)n3)cc2c1 | 15.7
Cn1nc(C(F)(F)F)c(C#N)c1N1CCN(c2ccc(F)cc2)CC1 | 41.9
Cn1ccc(=Nc2ccc(NC(=O)c3ccc(N=c4ccn(C)c5ccc([N+](=O)[O-])cc45)cc3)cc2)cc1 | 0.0417

SMILES | AC35 [µM]
CCCCNc1c(-c2ccc(-c3ccc(OC)cc3)c(OC)c2)nc2ccccn12 | 5.67
CCOC(=O)c1ccc(NC(=S)N(Cc2cccnc2)Cc2ccco2)cc1 | 21.7
O=C(CSc1ccc(-c2ccccn2)nn1)c1ccccc1 | 20
Cc1ccccc1Oc1nc(-c2ccccn2)nc2ccccc12 | 2.17
O=c1c(O)c(-c2ccccc2)oc2ccccc12 | 31.1
Oc1ccccc1-c1cc(-c2ccc3c(c2)OCCO3)n[nH]1 | 15.2
CC1CCN(c2nc(-c3ccncc3)nc3ccccc23)CC1 | 4.32
CC(=O)NC(c1ccc(C)cc1)c1cc([N+](=O)[O-])c2cccnc2c1O (centres undefined) | 10.1
CN(C)c1nc(SCc2ccc(Cl)cc2)nc2c1CCCC2 | 40.2
CCCCCCSc1ccc(-c2nc3ccccn3c2NCCCC)cc1 | 12.2
Fc1ccc(CCNC(=S)Nc2ccc(F)c(Cl)c2)cc1 | 15.9
S=C(NCc1ccco1)Nc1ccc(Oc2ccc(Cl)cc2)cc1 | 24
C(=C1c2ccccc2-c2ccccc21)c1ccncc1 | 12.1
Cc1ccc(O)c(C2=NNC(c3ccc(Cl)cc3)C2)c1 (centres undefined) | 4.31
O=C(Nc1ccc(Br)c(C(F)(F)F)c1)c1ccccc1 | 20
CC(C)=CCc1c(O)ccc(C(=O)Cc2ccccc2)c1O | 16.4
CCCn1nc(C(=O)N2CCN(S(=O)(=O)c3ccc(C)c(C)c3)CC2)c2ccccc2c1=O | 11.7
CC/C(=N/NC(=O)c1ccccc1O)c1c(C)[nH]n(-c2ccccc2)c1=O | 34.9
Clc1ccc(C2=NCCN2)cc1 | 5.64
COc1ccc(/C=N/Nc2cc(C)nc(-n3nc(C)cc3C)n2)cc1 | 1.06
O=Cc1cc(N=Nc2ccccc2Cl)ccc1O | 2.77
CC1(C)C=Cc2c(ccc3c2OC[C@@H](c2ccc(O)cc2O)C3)O1 | 17.8
Cc1ccc2c(C)c3ccc4ccccc4c3c[n+]2c1 | 0.0368
